Reference: article PMC4805779, “The Ascaris suum nicotinic receptor, ACR-16, as a drug target: Four novel negative allosteric modulators from virtual screening” (International Journal for Parasitology: Drugs and Drug …, 2016)
Where a name gives a salt, the structure may show the parent alone. Read-outs that look alike come from different tables or passages of the source.

How the values were obtained:
[1] = biological target: T1, Asu-ACR-16 (Ascaris suum, UniProt F1KYJ9); experiment: cell-based; format: cell-based; conditions: for Hill slope (nH): inhibitory concentration-response vs 100 μM ach; for Inhibitionmax (maximum inhibition): of currents elicited by 100 μM ach
T1 construct: Full-length Asu-acr-16 cDNA was amplified with the forward primer; expressed in transfected cells; host or cells: Xenopus laevis oocytes injected with Asu-acr-16 cRNA plus Asu-ric-3 cRNA
T1 sequence (F1KYJ9 1-504): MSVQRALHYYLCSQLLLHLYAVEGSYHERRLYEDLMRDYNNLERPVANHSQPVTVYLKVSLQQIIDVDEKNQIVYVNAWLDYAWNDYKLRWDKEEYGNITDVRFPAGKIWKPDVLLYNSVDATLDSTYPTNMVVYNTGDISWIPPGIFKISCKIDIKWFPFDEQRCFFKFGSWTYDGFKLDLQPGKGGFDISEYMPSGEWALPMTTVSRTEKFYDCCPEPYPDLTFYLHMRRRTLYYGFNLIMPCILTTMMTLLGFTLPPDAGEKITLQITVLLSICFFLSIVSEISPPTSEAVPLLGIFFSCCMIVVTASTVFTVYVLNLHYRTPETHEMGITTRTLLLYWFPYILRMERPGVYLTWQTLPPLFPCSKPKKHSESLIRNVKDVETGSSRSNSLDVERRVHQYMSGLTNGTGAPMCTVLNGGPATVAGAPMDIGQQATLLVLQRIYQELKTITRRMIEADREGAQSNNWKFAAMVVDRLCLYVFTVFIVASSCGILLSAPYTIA
Procedure: The nanoject II microinjector (Drummond Scientific, PA, USA) was used to injected the cRNA mixture into the animal pole of the de-folliculated X. laevis oocyte (Ecocyte Bioscience, Austin, TX, USA).
(§1) We used two-electrode voltage-clamp electrophysiology to record the inward current generated by the activated Asu-ACR-16 receptors expressed in X. laevis oocytes. 100 μM BAPTA-AM (final concentration) was added into the oocyte incubation solution 4 h prior to recording, to prevent the current produced by the endogenous calcium-activated chloride channels during recording. An Axoclamp 2B amplifier (Molecular Devices, CA, USA) was used for recording and oocytes were held at −60 mV. A PC computer with software Clampex 9.2 (Molecular Devices, CA, USA) was used to acquire the recording data. The microelectrodes used to measure current in oocytes were pulled on a Flaming/Brown horizontal electrode puller (Model P-97, Sutter Instruments), filled with 3M KCl and had resistances of 20–30 MΩ. The microelectrode tips were broken back carefully with Kimwipes (Wilmington, NC, USA) to reduce the resistance to 2–5 MΩ. […] Oocytes were placed into a tiny groove of the narrow oocyte recording chamber.
(§2) 100 μM acetylcholine was applied initially for 10 s as a control to check the viability of the oocytes and Asu-ACR-16 expression for all the recordings. Recording solution was then used to wash out the drug from the oocytes for 2–3 min before next application of drug perfusion.
(§3) The data from electrophysiological recordings were analyzed using Clampfit 9.2 (Molecular Devices, CA, and USA) and GraphPad Prism 5.0 (Graphpad Software Inc., CA, USA). […] Concentration-response relationships or concentration-inhibition (%) relationships were analyzed by fitting data points into the Hill equation, with at least four replicates of each experiment set.

[2] = biological target: T1, Asu-ACR-16; experiment: cell-based; format: cell-based
Procedure: as §1, §2, §3

[3] = tested on: C. elegans strain N2; experiment: C. elegans L4 larvae motility (thrashing) in M9 buffer; format: in vivo, Caenorhabditis elegans; conditions: for Effect on locomotion of worms vs negative control: 100 μM, 0-20 min
Procedure: The wild-type C. elegans strain N2 were obtained from the Caenorhabditis Genetics Center (University of Minnesota, MN, USA). […] We counted the number of worms with normal motility in M9 buffer with diluted drugs from the stock solutions (≤1% DMSO) at 0, 5, 10, 15 and 20 min. Five replicates were applied for each treatment. Motility between negative control (1% DMSO, final concentration) and drug treated worms were compared at each time point using student t-test.

[4] = inhibition of currents elicited by 100 μM ach, oocytes held at −60 mV, mean ± S.E.M., read-out: IC50

Row | SMILES | Hill slope (nH) ([1]; mean ± S.E.M.) | Inhibitionmax (maximum inhibition) ([1]; mean ± S.E.M.) [%] | Hill slope (nH) of ach curve ([2]; in presence of 3 μM hit) | IC50 [1, 4] [µM] | Effect on locomotion of worms vs negative control ([3]; L4 larvae) | also measured
1 | CC(C)(C)[C@]1(O)CCN2C[C@H]3c4ccccc4CCc4cccc(c43)[C@@H]2C1 [(+)-butaclamol Cl, (+)-butaclamol hydrochloride] | 1.34 ± 0.29 | 79.53 ± 12.41 | 12.75 ± 3.63 | – | – | IC50 [1]: 9.85 ± 2.37 µM; Hill slope (nH) of ach curve ([2]; in presence of 1 μM hit): 9.64 ± 4.14
2 | Cl.N#Cc1ccc2c(c1)CCN(CC[C@H]1CC[C@H](NC(=O)c3ccnc4ccccc34)CC1)C2.O [SB-277011-A, SB-277011-A hydrochloride hydrate] | – | – | – | – | – | Time to recovery of normal motility ([3]; L4 larvae, 30 μM): ≤ 20 min; Drop in number of normal worms with thrashing-like movement ([3]; L4 larvae, 30 μM, 5 min, p < 0.01): 60%; Number of worms with motility that appeared normal ([3]; L4 larvae, 30 μM, 10 min, p < 0.05): 50%; Number of worms with motility that appeared normal ([3]; L4 larvae, 30 μM, 15 min, p > 0.05): 85%; Number of worms with motility that appeared normal ([3]; L4 larvae, 30 μM, after 20 min): returned to near negative control values; Effect on motility of adult C. elegans compared with larvae ([3]; adult worms): less effective on adult C. elegans
3 | CC(=O)OCC[N+](C)(C)C [ach, acetylcholine chloride] | – | – | – | – | – | Hill slope (nH) ([2]; ach alone (control, absence of hits)): 3.05 ± 0.07; Emax ([2]; read-out: Imax (maximum response)): 97.5 ± 1.19%
4 | O=C(OCC1c2ccccc2-c2ccccc21)N1CCC(C(=O)O)(c2cccc3ccccc23)CC1 [fmoc-1, fmoc-4-(naphthalen-1-yl)-piperidine-4-carboxylic acid] | 1.97 ± 0.37 | 82.49 ± 4.74 | 1.76 ± 0.21 | 10 ± 1.38 | No visual effects | –
5 | O=C(OCC1c2ccccc2-c2ccccc21)N1CCC(C(=O)O)(c2ccc3ccccc3c2)CC1 [fmoc-2, fmoc-4-(naphthalen-2-yl)-piperidine-4-carboxylic acid] | 1.22 ± 0.17 | 80.34 ± 10.32 | 2.54 ± 0.18 | 16.7 ± 1.95 | No visual effects | –
6 | c1ccc([C@H]2CN3CCSC3=N2)cc1 [levamisole, Levamisole hydrochloride] | – | – | – | – | – | Time without recovery of normal motility ([3]; L4 larvae, 30 μM): > 24 h
